Values quoted from earlier work in patent US7611833B2, “Yeast genes that affect viral replication” (priority 2001, dated 2009).
Where two headings read alike, the source gives them in different places.

How the values were obtained:
poliovirus [1] = system: poliovirus
poliovirus [2] = system: poliovirus; remark: listed apart in the source
poliovirus [3] = system: poliovirus; remark: listed apart in the source
HeLa cells = HeLa cells treated with oleic acid

| SMILES | RNA replication by poliovirus (poliovirus [1]) | RNA replication by the alphavirus SFV (alphavirus SFV) | Poliovirus RNA replication (poliovirus [2]) | In vitro translation (poliovirus [3]) | Poliovirus RNA replication (poliovirus [3]) | Synthesis of lipids (HeLa cells) |
| --- | --- | --- | --- | --- | --- | --- |
| C/C=C/C/C=C/CCC(=O)[C@H]1O[C@H]1C(N)=O [Cerulenin] | inhibits RNA replication | inhibits RNA replication |  |  |  |  |
| CCCCCCCC/C=C\CCCCCCCC(=O)O [oleic acid] |  |  | disrupts poliovirus RNA replication | inhibited in vitro translation | disrupts poliovirus RNA replication | major changes in the synthesis of many lipids |
